Results reported in US10512624B2, “Long-chain amphipathic dicarboxylic acids for treatment of diabetes type-1” (Syndromex Ltd., priority 2016, dated 2019).

Experiments:
[1] = tested on: Soleus GLUT4; assay: Activation of Soleus GLUT4 in STZ diabetic rats; type: in vivo, rat
Protocol: Administering a combination of Medica16αα and insulin was performed by treating STZ diabetic rats (FBG >300 mg/dl) with oral MEDICA16αα(15 mg/kg b.i.d) for five consecutive days, then MEDICA16αα-responsive rats were further treated with MEDICA16αα(15 mg/kg b.i.d) for 10 additional consecutive days (“STZ/MEDICA Res”), and MEDICA16αα non-responsive rats (FBG >250 mg/dl) were further treated for 10 additional consecutive days with either insulin Neutral Protamine Hagedorn (NPH) (3 u/kg b.i.d subcutaneously) (“STZ/NPH”), or with insulin NPH (3 u/kg b.i.d subcutaneously in combination with oral MEDICA16αα(15 mg/kg b.i.d) (“STZ/MEDICA NPH”).
Muscle tissue was fixed with 4% buffered formaldehyde for 4 hours. Paraffin sections (5 μm) were rehydrated and antigen retrieved in citrate buffer using a Biocare pressure cooker, followed by 5 minutes blocking in peroxidase and 10 minutes of protein block (Cas-Block). The sample was incubated with anti-GLUT4 antibody (AbCam ab65267), followed by polyclonal anti-mouse IgG. DAB substrate buffer was then added to achieve coloration. The specimens were subsequently dehydrated with ethanol, cleared with xylene and then mounted on glass cover slips. Digital images were obtained using Nikon Eclipse TE-2000E microscope equipped with Olympus DP70 camera. Image analysis was carried out using ImageJ software. […]
Protein lysates were prepared in sodium dodecyl sulfate (SDS) sample buffer (62 mM Tris (pH 6.8), 2.3% SDS, […] mercaptoethanol, 10% glycerol), and were subjected to SDS-PAGE, electro-transferred onto cellulose nitrate membranes (Schleicher & Schuell) and probed with the indicated first antibody, followed by HRP-labeled second antibody. Protein concentration was determined by BCA (Thermo Scientific). Bands were detected by ECL, and the intensity of individual bands was determined by densitometry using ImageJ 1.48 v software.

[2] = tested on: NOD mice; assay: Hyperinsulinemic-euglycemic clamp in pre-diabetic NOD mice; type: in vivo, mouse
Protocol: Clamps were carried out according to Vanderbilt Mouse Metabolic Phenotyping Center, Vanderbilt University School of Medicine protocol (28), with minor modifications, using HPLC-purified ^3H-glucose (specific activity 13.5 Ci/mmol, MT-914 Moravek Biochemicals, priming dose of 1 μC followed by continuous infusion of 0.05 μCi·min-1 for a 90 min equilibration period), HumulinR insulin (Eli Lilly, 4 mU·kg-1. min-1), and 10% glucose solution.
Clamps were carried out in conscious 12-14-week old NOD female mice fasted for 3 hours, 3 days following catheters' insertion. […] Plasma glucose specific activity was verified on 80, 90, 100, and 120 min following insulin infusion. On 120 min, 12-μCi bolus of ^14C-2-deoxyglucose (DG) (specific activity 274.6 mCi/mmol, MC-392 Moravek Biochemicals) was injected, followed by blood sampling on 122, 125, 130, 135, and 145 min, to determine blood glucose and 2-deoxyglucose activity.
Upon sacrifice, gastrocnemius, superficial vastus lateralis, and soleus muscles were removed, immediately frozen in liquid nitrogen, and stored at −70° C. until further analysis. Glucose appearance (Ra) and disappearance (Rd) were determined using Steele non-steady-state equations. Endogenous glucose production (EndoRt) was determined by subtracting the glucose infusion rate (GIR) from total glucose turnover (Rt). Glucose metabolic index in muscle (Rg) was calculated by the equation:
[formula] where 2[^14C]DGPtissue is the 2[^14C]DG radioactivity in muscle normalized to tissue weight (dpm/g tissue), AUC 2[^14C]DGplasma is the area under the plasma 2[^14C]DG disappearance curve (dpm·min·m1-1), and [arterial glucose] is the average blood glucose (mmol/1) during the 80-120 min clamp period. Immuno-Histochemistry

Compound: CC(C)(CCCCCCCCCCCCC(C)(C)C(=O)O)C(=O)O [MEDICA16αα, 2,2,15,15-tetramethylhexadecane-1,16-dioic acid]
- soleus AKT (phospho-Akt(Ser473)) [1]: activated
- soleus AMPK (phospho-ACC(Ser79)) [1]: activated
- soleus phospho-AS160(Thr642) [1]: increase in phosphorylated AS160(Thr642)
- clamped plasma insulin [2]: decrease
- deoxyglucose uptake into soleus and gastrocnemius muscles [2]: insulin-induced deoxyglucose uptake
- endogenous glucose production [2]: insulin-induced decrease
- increase in glucose infusion rate (GIR) [2]: 37%
- total body glucose turnover [2]: increase
